Experimental data as given in ChEMBL document CHEMBL3734721 (J Med Chem, 2015).
In brackets after ≈: the same amount, converted by molar mass.

How the values were obtained:
[1] = biological target: 5-hydroxytryptamine receptor 2A (Homo sapiens, UniProt P28223); experiment: Agonist activity at human 5-HT2A receptor expressed in CHO-K1 cells assessed as calcium level by FDSS assay; type: functional, cell-based
[2] = biological target: T1, 5-hydroxytryptamine receptor 2C (Homo sapiens, UniProt P28335); experiment: Antagonist activity at human 5-HT2C receptor expressed in CHO-K1 cells assessed as seretonin-induced calcium level by FDSS assay; type: functional, cell-based
T1 sequence (P28335 whole entry): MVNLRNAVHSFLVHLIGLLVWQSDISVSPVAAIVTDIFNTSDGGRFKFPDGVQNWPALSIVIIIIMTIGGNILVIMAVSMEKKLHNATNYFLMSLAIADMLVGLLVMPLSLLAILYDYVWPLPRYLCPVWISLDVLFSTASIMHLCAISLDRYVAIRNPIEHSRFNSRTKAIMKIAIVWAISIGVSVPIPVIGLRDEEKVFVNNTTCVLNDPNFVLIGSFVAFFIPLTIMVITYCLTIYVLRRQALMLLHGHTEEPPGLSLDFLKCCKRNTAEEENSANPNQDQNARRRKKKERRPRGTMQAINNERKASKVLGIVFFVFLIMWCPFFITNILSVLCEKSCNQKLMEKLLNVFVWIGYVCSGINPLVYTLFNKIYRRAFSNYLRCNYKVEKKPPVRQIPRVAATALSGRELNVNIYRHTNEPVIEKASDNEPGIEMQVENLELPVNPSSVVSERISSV

[3] = biological target: T2, Alpha-2C adrenergic receptor (Homo sapiens, UniProt P18825); experiment: Agonist activity at human wild-type alpha 2C receptor expressed in CHO-K1 cells assessed as cAMP level by HTRF assay; type: functional, cell-based
T2 sequence (P18825 whole entry): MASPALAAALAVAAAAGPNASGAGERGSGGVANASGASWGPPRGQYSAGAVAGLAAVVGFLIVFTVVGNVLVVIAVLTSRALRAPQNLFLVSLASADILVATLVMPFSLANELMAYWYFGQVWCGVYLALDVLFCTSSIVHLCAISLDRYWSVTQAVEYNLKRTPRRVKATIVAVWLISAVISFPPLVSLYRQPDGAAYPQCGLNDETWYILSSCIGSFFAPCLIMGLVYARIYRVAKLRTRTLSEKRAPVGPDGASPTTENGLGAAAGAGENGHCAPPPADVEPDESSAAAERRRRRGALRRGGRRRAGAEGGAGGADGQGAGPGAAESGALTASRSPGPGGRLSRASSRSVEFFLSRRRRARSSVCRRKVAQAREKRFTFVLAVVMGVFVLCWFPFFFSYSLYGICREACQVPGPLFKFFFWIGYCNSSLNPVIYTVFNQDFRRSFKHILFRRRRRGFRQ

[4] = Intrinsic clearance in mouse liver microsomes at 1 uM by HPLC/MS/MS analysis; type: ADME; conditions: read-out: CLH
[5] = biological target: T3, Type-1 angiotensin II receptor (Homo sapiens, UniProt P30556); experiment: Antagonist activity at human wild-type AGTR1 receptor expressed in CHO-K1 cells assessed as angiotensin-2-induced calcium by FDSS assay; type: functional, cell-based
T3 sequence (P30556 whole entry): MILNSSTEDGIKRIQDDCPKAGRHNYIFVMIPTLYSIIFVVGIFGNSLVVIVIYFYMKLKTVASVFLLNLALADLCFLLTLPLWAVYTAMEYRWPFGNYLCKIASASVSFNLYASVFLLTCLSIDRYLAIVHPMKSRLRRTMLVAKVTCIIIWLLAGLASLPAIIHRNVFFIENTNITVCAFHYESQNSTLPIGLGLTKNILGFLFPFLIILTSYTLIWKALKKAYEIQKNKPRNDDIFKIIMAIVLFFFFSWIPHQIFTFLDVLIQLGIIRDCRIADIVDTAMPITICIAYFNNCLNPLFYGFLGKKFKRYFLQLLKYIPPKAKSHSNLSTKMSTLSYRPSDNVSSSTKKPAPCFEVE

[6] = Kinetic solubility of compound in phosphate buffer at pH 7.4 for 4 hrs by UPLC/UV analysis; type: physicochemical; conditions: read-out: Kinetic_solubility
[7] = Chemical stability of compound in 0.1N NaOH assessed as compound remaining at 10 mg/ml after 1 day; type: physicochemical; conditions: read-out: Stability
[8] = biological target: T4, Cytochrome P450 1A2 (Homo sapiens, UniProt P05177); experiment: Inhibition of human CYP1A2 by LC-MS analysis; type: ADME
T4 sequence (P05177 whole entry): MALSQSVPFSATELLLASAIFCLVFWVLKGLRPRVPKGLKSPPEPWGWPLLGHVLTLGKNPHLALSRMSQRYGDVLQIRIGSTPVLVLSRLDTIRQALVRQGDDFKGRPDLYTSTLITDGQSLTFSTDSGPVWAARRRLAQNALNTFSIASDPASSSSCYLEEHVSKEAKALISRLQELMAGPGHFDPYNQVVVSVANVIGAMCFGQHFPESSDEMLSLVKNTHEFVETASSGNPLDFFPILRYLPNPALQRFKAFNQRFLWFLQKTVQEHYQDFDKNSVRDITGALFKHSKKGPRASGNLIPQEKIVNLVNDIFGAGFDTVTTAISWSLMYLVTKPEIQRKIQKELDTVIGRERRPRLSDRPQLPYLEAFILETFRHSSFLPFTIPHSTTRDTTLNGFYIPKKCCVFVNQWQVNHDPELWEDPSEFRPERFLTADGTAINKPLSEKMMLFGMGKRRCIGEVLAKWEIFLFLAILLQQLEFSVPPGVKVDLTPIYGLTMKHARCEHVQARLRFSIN

[9] = Chemical stability of compound in 0.1N NaOH assessed as compound remaining at 10 mg/ml after 2 days; type: physicochemical; conditions: read-out: Stability
[10] = biological target: Beta-1 adrenergic receptor (Homo sapiens, UniProt P08588); experiment: Antagonist activity at human beta1 receptor expressed in CHO-K1 cells assessed as isoproterenol-induced cAMP level by HTRF assay; type: functional, cell-based
[11] = biological target: Beta-2 adrenergic receptor (Homo sapiens, UniProt P07550); experiment: Antagonist activity at human beta2 receptor expressed in CHO-K1 cells assessed as isoproterenol-induced cAMP level by HTRF assay; type: functional, cell-based
[12] = Chemical stability of compound in buffer at pH 7.4 assessed as compound remaining at 10 mg/ml after 1 day; type: physicochemical; conditions: read-out: Stability
[13] = biological target: 5-hydroxytryptamine receptor 6 (Homo sapiens, UniProt P50406); experiment: Antagonist activity at human 5-HT6 receptor expressed in 1321N1 cells assessed as seretonin-induced cAMP by HTRF assay; type: functional, cell-based
[14] = system: HepG2; experiment: Cytotoxicity against human HepG2 cells; type: cell-based

Sequence of 5-hydroxytryptamine receptor 6 (P50406 whole entry): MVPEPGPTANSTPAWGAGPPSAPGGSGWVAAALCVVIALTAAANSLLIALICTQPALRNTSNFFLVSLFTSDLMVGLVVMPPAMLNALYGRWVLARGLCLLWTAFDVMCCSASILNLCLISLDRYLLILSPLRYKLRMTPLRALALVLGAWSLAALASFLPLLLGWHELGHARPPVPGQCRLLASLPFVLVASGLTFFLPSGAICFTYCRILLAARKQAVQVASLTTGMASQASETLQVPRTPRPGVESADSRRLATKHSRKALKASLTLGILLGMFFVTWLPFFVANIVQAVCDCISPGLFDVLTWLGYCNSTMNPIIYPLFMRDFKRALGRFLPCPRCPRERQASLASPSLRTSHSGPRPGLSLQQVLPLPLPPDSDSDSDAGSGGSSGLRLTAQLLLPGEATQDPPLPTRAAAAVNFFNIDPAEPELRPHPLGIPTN
Sequence of 5-hydroxytryptamine receptor 2A (P28223 whole entry): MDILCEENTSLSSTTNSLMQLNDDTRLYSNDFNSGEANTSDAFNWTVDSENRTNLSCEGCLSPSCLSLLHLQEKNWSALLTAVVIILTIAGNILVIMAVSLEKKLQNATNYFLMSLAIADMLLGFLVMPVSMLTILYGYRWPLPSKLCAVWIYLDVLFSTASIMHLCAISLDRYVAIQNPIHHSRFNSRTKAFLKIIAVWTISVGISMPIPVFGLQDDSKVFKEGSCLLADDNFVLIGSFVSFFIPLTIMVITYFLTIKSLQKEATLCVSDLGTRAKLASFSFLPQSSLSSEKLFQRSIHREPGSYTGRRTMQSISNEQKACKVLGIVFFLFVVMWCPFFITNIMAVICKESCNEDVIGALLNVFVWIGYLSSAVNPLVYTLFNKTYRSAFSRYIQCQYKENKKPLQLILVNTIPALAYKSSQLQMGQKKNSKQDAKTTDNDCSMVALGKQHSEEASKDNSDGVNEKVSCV
Sequence of Beta-2 adrenergic receptor (P07550 whole entry): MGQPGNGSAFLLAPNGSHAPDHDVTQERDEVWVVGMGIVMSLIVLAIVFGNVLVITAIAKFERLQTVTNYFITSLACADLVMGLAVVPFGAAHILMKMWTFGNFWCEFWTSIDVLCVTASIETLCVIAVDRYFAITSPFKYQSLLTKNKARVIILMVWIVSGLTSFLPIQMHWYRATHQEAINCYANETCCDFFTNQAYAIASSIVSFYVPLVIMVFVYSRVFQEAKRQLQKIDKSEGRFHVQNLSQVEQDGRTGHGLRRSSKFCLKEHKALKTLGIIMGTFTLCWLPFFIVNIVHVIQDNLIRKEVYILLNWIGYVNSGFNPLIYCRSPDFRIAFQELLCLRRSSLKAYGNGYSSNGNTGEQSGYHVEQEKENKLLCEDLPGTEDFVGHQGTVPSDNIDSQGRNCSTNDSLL
Sequence of Beta-1 adrenergic receptor (P08588 whole entry): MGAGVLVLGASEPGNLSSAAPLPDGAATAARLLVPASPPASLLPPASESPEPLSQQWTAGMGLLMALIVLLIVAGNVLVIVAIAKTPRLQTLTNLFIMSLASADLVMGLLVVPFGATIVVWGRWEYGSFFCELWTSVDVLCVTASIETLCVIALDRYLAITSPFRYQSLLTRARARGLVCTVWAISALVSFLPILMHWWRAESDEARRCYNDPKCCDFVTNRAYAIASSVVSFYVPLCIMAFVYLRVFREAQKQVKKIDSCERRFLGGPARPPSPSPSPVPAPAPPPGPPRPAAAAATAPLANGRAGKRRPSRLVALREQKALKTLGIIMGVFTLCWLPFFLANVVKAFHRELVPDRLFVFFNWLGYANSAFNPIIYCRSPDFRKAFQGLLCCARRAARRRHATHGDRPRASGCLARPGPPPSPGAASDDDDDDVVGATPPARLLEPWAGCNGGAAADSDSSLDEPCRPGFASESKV

Compound | EC50 [1] [µM] | IC50 [2] [µM] | EC50 [3] [µM] | microsomal CLint at 1 µM [4] [µL/min/mg] | IC50 [5] [µM] | solubility kinetic at 4 h [6] [µM] | remaining at 24 h, 10 mg/ml [7] [%] | IC50 [8] [µM] | remaining at 48 h, 10 mg/ml [9] [%] | IC50 [10] [µM] | IC50 [11] [µM] | remaining at 24 h, 10 mg/ml [12] [%] | IC50 [13] [µM] | EC20 [14] [µM]
CB1C=Cc2cccc(OCC(O)CNC(C)C)c2N1 (stereo not drawn) | > 5.01 | > 5.01 | > 5.01 | > 346 | > 5.01 | 699 (≈ 192 µg/mL) | 88 | 3.16 | 82 | 0.631 | 0.501 | 93 | > 5.01 | 18.7
CB1C=Cc2c(cccc2OCC(O)CN(C)C)N1 (stereo not drawn) | > 5.01 | > 5.01 | > 5.01 | 175 | > 5.01 | 647 (≈ 168 µg/mL) | 89 | > 10 | 83 | 0.2 | 0.1 | 96 | > 5.01 | 59
